Experimental data published in PubChem BioAssay AID330 (DTP/NCI, 2004).
“And” between values parts separate entries of the source, which are not always exact repeats. Identical values can stand only once. Inconclusive results and toxic doses are left out.

Tested on: P388 leukemia ip, CD2F1 mice, survival T/C
Test: NCI In Vivo Anticancer Drug Screen. Data for tumor model P388 Leukemia (intraperitoneal) in CD2F1 (CDF1) mice
Settings: endpoint: median survival time, higher = longer survival
In short: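 Mice carrying the transplanted tumor received test compound or vehicle. Survival was recorded in each group, and the value is the treated-group measurement divided by that of the vehicle-treated control group.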

[1] = dose: 12.5 mg/kg/injection, schedule: Q01DX009 (ip), vehicle: saline with Tween-80
[2] = dose: 25.0 mg/kg/injection, schedule: Q01DX009 (ip), vehicle: saline with Tween-80
[3] = dose: 50.0 mg/kg/injection, schedule: Q01DX009 (ip), vehicle: saline with Tween-80
[4] = dose: 100.0 mg/kg/injection, schedule: Q01DX009 (ip), vehicle: saline with Tween-80
[5] = dose: 25.0 mg/kg/injection, schedule: Q01DX005 (ip), vehicle: saline with Tween-80

## O=C(COc1ccc(Cl)cc1)OCCN1CCCCCC1
dose: 60.0 mg/kg/injection, schedule: Q01DX005 (ip), vehicle: saline
  T/C: 109 % of control
dose: 120.0 mg/kg/injection, schedule: Q01DX005 (ip), vehicle: saline
  T/C: 110 % of control
dose: 240.0 mg/kg/injection, schedule: Q01DX005 (ip), vehicle: saline
  T/C: 100 % of control

## O=C1c2ccccc2C(=O)c2cscc21
[1]
  T/C: 100 % of control
[2]
  T/C: 97 % of control
[3]
  T/C: 97 % of control
[4]
  T/C: 98 % of control

## COc1ccc(S(=O)(=O)N/N=C/C(=O)OCOC(=O)C(C)(C)C)cc1
dose: 5.0 mg/kg/injection, schedule: Q01DX005 (ip), vehicle: other
  T/C: 111 % of control
dose: 5.0 mg/kg/injection, schedule: Q01DX005 (ip), vehicle: saline + Tween-80 + alcohol
  T/C: 116 % of control
dose: 10.0 mg/kg/injection, schedule: Q01DX005 (ip), vehicle: saline + Tween-80 + alcohol
  T/C: 111 % of control
dose: 12.5 mg/kg/injection, schedule: Q01DX005 (ip), vehicle: saline + Tween-80 + alcohol
  T/C: 119 % of control
dose: 25.0 mg/kg/injection, schedule: Q01DX005 (ip), vehicle: saline + Tween-80 + alcohol
  T/C: 111 % of control

## CNC(=O)OCc1c(COC(=O)NC)c(-c2ccc(Cl)cc2)n(C)c1C
dose: 6.25 mg/kg/injection, schedule: Q01DX009 (ip), vehicle: distilled water + Tween-80
  T/C: 155 % of control
dose: 12.5 mg/kg/injection, schedule: Q01DX009 (ip), vehicle: distilled water + Tween-80
  T/C: 150 % of control and 153 % of control

## O=C(O)Cc1cn2cc(Cl)ccc2n1
dose: 100.0 mg/kg/injection, schedule: Q01DX001 (ip), vehicle: Klucel (hydroxypropylcellulose) (HPC)
  T/C: 102 % of control
dose: 200.0 mg/kg/injection, schedule: Q01DX001 (ip), vehicle: Klucel (hydroxypropylcellulose) (HPC)
  T/C: 101 % of control
dose: 400.0 mg/kg/injection, schedule: Q01DX001 (ip), vehicle: Klucel (hydroxypropylcellulose) (HPC)
  T/C: 95 % of control

## CN(C)NC(=S)Sc1ccccc1
dose: 50.0 mg/kg/injection, schedule: Q01DX009 (ip), vehicle: Klucel (hydroxypropylcellulose) (HPC)
  T/C: 100 % of control
dose: 100.0 mg/kg/injection, schedule: Q01DX009 (ip), vehicle: Klucel (hydroxypropylcellulose) (HPC)
  T/C: 99 % of control

## O=C1c2ccccc2C(=O)c2c1oc1c2ccc2ccccc21
[1]
  T/C: 98 % of control
[2]
  T/C: 92 % of control
[3]
  T/C: 99 % of control
[4]
  T/C: 87 % of control

## NCC(SSC(CN)C(=O)O)C(=O)O (centres undefined)
dose: 12.5 mg/kg/injection, schedule: Q01DX009 (ip), vehicle: saline
  T/C: 100 % of control
dose: 25.0 mg/kg/injection, schedule: Q01DX009 (ip), vehicle: saline
  T/C: 101 % of control
dose: 50.0 mg/kg/injection, schedule: Q01DX009 (ip), vehicle: saline
  T/C: 103 % of control and 115 % of control

## CCC(O)c1ccco1 (centres undefined)
dose: 12.5 mg/kg/injection, schedule: Q01DX005 (ip), vehicle: saline with Tween-80
  T/C: 109 % of control
[5]
  T/C: 100 % of control
dose: 50.0 mg/kg/injection, schedule: Q01DX005 (ip), vehicle: saline with Tween-80
  T/C: 111 % of control and 112 % of control

## CCOC(=O)C(Cc1ccc(N(CCCl)CCCl)cc1)NC(=O)CNC(C)=O (centres undefined)
dose: 0.5 mg/kg/injection, schedule: Q04DX003 (ip), vehicle: saline with Tween-80
  T/C: 113 % of control
dose: 1.0 mg/kg/injection, schedule: Q04DX003 (ip), vehicle: saline with Tween-80
  T/C: 104 % of control
[1]
  T/C: 177 % of control
dose: 12.5 mg/kg/injection, schedule: Q04DX003 (ip), vehicle: saline
  T/C: 165 % of control
[2]
  T/C: 268 % of control
dose: 33.0 mg/kg/injection, schedule: Q04DX003 (ip), vehicle: saline with Tween-80
  T/C: 113 % of control
dose: 50.0 mg/kg/injection, schedule: Q04DX003 (ip), vehicle: saline with Tween-80
  T/C: 90 % of control

## COc1cccc(/C=N\NC(=O)C(C)SC(C)C(=O)N/N=C/c2cccc(OC)c2)c1 (centres undefined)
dose: 100.0 mg/kg/injection, schedule: Q04DX003 (ip), vehicle: saline with Tween-80
  T/C: 104 % of control
dose: 200.0 mg/kg/injection, schedule: Q04DX003 (ip), vehicle: saline with Tween-80
  T/C: 90 % of control
dose: 400.0 mg/kg/injection, schedule: Q04DX003 (ip), vehicle: saline with Tween-80
  T/C: 100 % of control

## CC(=O)/C(=C\c1ccc(Cl)c(Cl)c1)C(=O)CCN(C)C
dose: 12.5 mg/kg/injection, schedule: Q01DX005 (ip), vehicle: saline
  T/C: 110 % of control and 117 % of control
[5]
  T/C: 117 % of control
dose: 25.0 mg/kg/injection, schedule: Q01DX005 (ip), vehicle: saline
  T/C: 100 % of control and 107 % of control
dose: 50.0 mg/kg/injection, schedule: Q01DX005 (ip), vehicle: saline
  T/C: 110 % of control and 111 % of control
dose: 100.0 mg/kg/injection, schedule: Q01DX005 (ip), vehicle: saline with Tween-80
  T/C: 151 % of control
